Laboratory results taken from ChEMBL document CHEMBL1123274, “Azasteroids: structure-activity relationships for inhibition of 5 alpha-reductase and of androgen receptor binding” (J Med Chem, 1986).

Legend:
Androgen receptor = target: T1, Androgen receptor (Rattus norvegicus, UniProt P15207); experiment: In vitro antagonist activity against rat prostatic androgen receptor (AR)
T1 sequence (P15207 whole entry): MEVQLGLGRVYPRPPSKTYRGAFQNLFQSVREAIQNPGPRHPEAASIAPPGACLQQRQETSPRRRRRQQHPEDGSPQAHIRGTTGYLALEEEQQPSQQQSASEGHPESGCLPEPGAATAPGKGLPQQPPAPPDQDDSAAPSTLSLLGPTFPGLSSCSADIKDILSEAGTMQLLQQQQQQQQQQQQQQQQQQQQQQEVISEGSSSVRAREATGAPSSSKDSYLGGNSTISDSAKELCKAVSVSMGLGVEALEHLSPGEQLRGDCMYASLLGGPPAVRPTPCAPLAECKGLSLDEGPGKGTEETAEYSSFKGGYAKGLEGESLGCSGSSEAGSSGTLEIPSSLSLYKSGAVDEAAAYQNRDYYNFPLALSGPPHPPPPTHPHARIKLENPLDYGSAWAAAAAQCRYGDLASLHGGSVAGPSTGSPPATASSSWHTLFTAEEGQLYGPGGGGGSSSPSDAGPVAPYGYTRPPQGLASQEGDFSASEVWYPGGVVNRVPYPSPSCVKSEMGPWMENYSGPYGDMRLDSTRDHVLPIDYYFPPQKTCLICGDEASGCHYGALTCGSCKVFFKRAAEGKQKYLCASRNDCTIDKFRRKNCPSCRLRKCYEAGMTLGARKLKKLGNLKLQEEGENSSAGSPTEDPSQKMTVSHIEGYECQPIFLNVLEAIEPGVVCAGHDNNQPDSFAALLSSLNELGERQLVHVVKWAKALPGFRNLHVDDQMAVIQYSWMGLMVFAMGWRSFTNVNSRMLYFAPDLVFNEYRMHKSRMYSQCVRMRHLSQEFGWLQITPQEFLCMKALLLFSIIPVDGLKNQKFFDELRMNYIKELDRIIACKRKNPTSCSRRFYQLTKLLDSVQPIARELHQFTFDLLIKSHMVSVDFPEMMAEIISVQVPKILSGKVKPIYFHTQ

[1] = target: T2, Steroid 5-alpha-reductase (Rattus norvegicus, UniProt P24008+P31214); experiment: Inhibition of Steroid 5-alpha-reductase from rat prostate; assay type: tissue-based, Prostate gland
T2 sequence (P24008 whole entry): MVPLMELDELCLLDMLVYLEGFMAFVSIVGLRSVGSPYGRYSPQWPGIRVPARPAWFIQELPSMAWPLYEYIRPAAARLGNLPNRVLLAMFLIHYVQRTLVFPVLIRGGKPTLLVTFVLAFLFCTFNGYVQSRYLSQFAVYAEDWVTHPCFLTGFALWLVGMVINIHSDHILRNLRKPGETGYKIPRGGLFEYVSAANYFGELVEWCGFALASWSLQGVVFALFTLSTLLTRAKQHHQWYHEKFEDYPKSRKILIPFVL
T2 sequence (P31214 whole entry): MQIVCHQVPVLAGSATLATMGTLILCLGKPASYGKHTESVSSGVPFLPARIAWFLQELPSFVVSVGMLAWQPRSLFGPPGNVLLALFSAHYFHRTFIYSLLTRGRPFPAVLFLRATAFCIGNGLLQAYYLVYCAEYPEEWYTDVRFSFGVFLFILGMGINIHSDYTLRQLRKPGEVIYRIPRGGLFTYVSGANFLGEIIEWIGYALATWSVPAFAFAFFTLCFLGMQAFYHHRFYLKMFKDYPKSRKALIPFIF

[2] = target: T2, Steroid 5-alpha-reductase; experiment: Apparent inhibitory constant value for rat prostatic steroid 5-alpha reductase was determined; assay type: protein assay
[3] = target: T2, Steroid 5-alpha-reductase; experiment: In vitro inhibitory activity against rat prostatic steroid 5-alpha-reductase; assay type: protein assay
[4] = target: T2, Steroid 5-alpha-reductase; experiment: Apparent inhibitory constant value for rat prostatic 5-alpha reductase was determined; assay type: protein assay
[5] = target: T2, Steroid 5-alpha-reductase; experiment: Apparent inhibitory constant value for rat prostatic steroid 5alpha reductase was determined; assay type: protein assay

Compound | IC50 (Androgen receptor) | IC50 [1] | Ki app [2] | IC50 [3] | Ki app [4] | Ki app [5]
C[C@]12CC[C@H]3[C@@H](CCC4=CC(=O)CC[C@@H]43)[C@@H]1CC[C@@]21CCCO1 | 30 nM | 1.5e-06 M | – | – | – | –
CCN(CC)C(=O)[C@H]1CC[C@H]2[C@@H]3CCC4=C(C#N)C(=O)CC[C@]4(C)[C@H]3CC[C@]12C | 1300 nM | 2.9e-08 M | – | – | – | –
CC(O)[C@@]1(O)CC[C@H]2[C@@H]3CCC4N(C)C(=O)CC[C@]4(C)[C@H]3CC[C@@]21C (some centres undefined) | 1900 nM | – | 6 nM | 7.6 nM | – | –
CC(O)[C@H]1CC[C@H]2[C@@H]3CCC4NC(=O)CC[C@]4(C)[C@H]3CC[C@]12C (some centres undefined) | 9300 nM | 4.5e-08 M | – | – | – | –
C[C@]12CC[C@H]3[C@@H](CCC4NC(=O)CC[C@@]43C)[C@@H]1CC[C@@H]2O (some centres undefined) | 930 nM | 2.5e-07 M | – | – | – | –
C=C1C[C@@H]2[C@H](CC[C@@]3(C)[C@H]2CC[C@]3(OC(C)=O)C(C)=O)[C@@]2(C)CCC(=O)C=C12 | – | 1.6e-07 M | – | – | – | –
COC(=O)[C@H]1CC[C@H]2[C@@H]3CCC4=CC(=O)CC[C@]4(C)[C@H]3CC[C@]12C | 140 nM | 4.8e-07 M | – | – | – | –
CC(O)[C@H]1CC[C@H]2[C@@H]3CCC4N(C)C(=O)CC[C@]4(C)[C@H]3CC[C@]12C (some centres undefined) | 74 nM | 1.9e-08 M | – | – | – | –
CC(=O)[C@H]1CC[C@H]2[C@@H]3CCC4N(C)C(=O)CC[C@]4(C)[C@H]3CC[C@]12C (some centres undefined) | 210 nM | 2.3e-08 M | – | – | – | –
CN1C(=O)CC[C@@]2(C)C1CC[C@@H]1[C@@H]2CC[C@@]2(C)[C@H]1CC[C@@]21CCCO1 (some centres undefined) | 140 nM | – | 24 nM | 37 nM | – | –
CC(C)N(C(=O)[C@H]1CC[C@H]2[C@@H]3CCC4NC(=O)CC[C@]4(C)[C@H]3CC[C@]12C)C(C)C (some centres undefined) | > 100000 nM | – | 13 nM | 11 nM | – | –
C[C@]12CCC(=O)CC1CC[C@@H]1[C@@H]2CC[C@@]2(C)[C@H]1CC[C@@]21CCCO1 (some centres undefined) | 23 nM | > 1e-06 M | – | – | – | –
C[C@]12CC[C@H]3[C@@H](CCC4=CC(=O)CC[C@@]43C)[C@@H]1CC[C@@H]2C(=O)O | 8900 nM | 6.6e-07 M | – | – | – | –
COC(=O)[C@H]1CC[C@H]2[C@@H]3CCC4N(C)C(=O)CC[C@]4(C)[C@H]3CC[C@]12C (some centres undefined) | 120 nM | – | – | 7.6 nM | 165 nM | –
C[C@]12CCC(=O)C=C1CC[C@@H]1[C@@H]2CC[C@@]2(C)[C@H]1CC[C@@]21CCCO1 | 89 nM | 1.1e-06 M | – | – | – | –
CC(=O)[C@H]1CC[C@H]2[C@@H]3CCC4NC(=O)CC[C@]4(C)[C@H]3CC[C@]12C (some centres undefined) | 68000 nM | 5e-08 M | – | – | – | –
CCN(CC)C(=O)[C@H]1CC[C@H]2[C@@H]3CCC4=CC(=O)CC[C@]4(C)[C@H]3CC[C@]12C | 340 nM | 7.6e-07 M | – | – | – | –
CCN(CC)C(=O)[C@H]1CC[C@H]2[C@@H]3CC[C@H]4N(C)C(=O)CC[C@]4(C)[C@H]3CC[C@]12C | 2800 nM | – | – | 11 nM | – | 5 nM
CN1C(=O)CC[C@@]2(C)C1CC[C@H]1[C@@H]3CC[C@H](O)[C@@]3(C)CC[C@@H]12 (some centres undefined) | 19 nM | 1.5e-07 M | – | – | – | –

Compound | IC50 (Androgen receptor) | IC50 [1] | Ki app [2] | IC50 [3] | Ki app [4] | Ki app [5]
CCN(CC)C(=O)[C@H]1CC[C@H]2[C@@H]3CC[C@H]4N(C)C(=O)C=C[C@]4(C)[C@H]3CC[C@]12C | 450 nM | – | – | 290 nM | – | –
CC(C(=O)[O-])[C@H]1CC[C@H]2[C@@H]3CCC4N(C)C(=O)CC[C@]4(C)[C@H]3CC[C@]12C.[Na+] (some centres undefined) | 46000 nM | – | 1.7 nM | 1.7 nM | – | –
CCN(CC)C(=O)[C@H]1CC[C@H]2[C@@H]3CC[C@@H]4NC(=O)CC[C@]4(C)[C@H]3CC[C@]12C (stereo in doubt; 9x) | > 100000 nM | – | 29 nM | 41 nM | – | –
CC(C)N(C(=O)[C@H]1CC[C@H]2[C@@H]3CCC4NC(=O)C=C[C@]4(C)[C@H]3CC[C@]12C)C(C)C (some centres undefined) | 18000 nM | – | – | 79 nM | – | –
CCCCCCCCNC(=O)[C@H]1CC[C@H]2[C@@H]3CCC4N(C)C(=O)CC[C@]4(C)[C@H]3CC[C@]12C (some centres undefined) | 130 nM | – | – | 0.21 nM | – | –
CN1C(=O)CC[C@@]2(C)C1CC[C@H]1[C@@H]3CC[C@H](C(N)=O)[C@@]3(C)CC[C@@H]12 (some centres undefined) | 440 nM | – | – | 17 nM | – | –
CCN(CC)C(=O)[C@H]1CC[C@H]2[C@@H]3CC[C@H]4N(C)/C(=N/O)CC[C@]4(C)[C@H]3CC[C@]12C | 540 nM | – | – | 100 nM | – | –
CCOC(=O)C[C@H]1CC[C@H]2[C@@H]3CC[C@H]4N(C)C(=O)CC[C@]4(C)[C@H]3CC[C@]12C | 66 nM | – | – | 6.8 nM | – | –
CN1C(=O)CC[C@@]2(C)C1CC[C@H]1[C@@H]3CC[C@H](C(=O)NC(C)(C)C)[C@@]3(C)CC[C@@H]12 (some centres undefined) | 680 nM | – | – | 0.56 nM | – | –
C[C@]12CCC(=O)C[C@@H]1CC[C@@H]1[C@@H]2CC[C@]2(C)[C@@H](O)CC[C@@H]12 [STANOLONE] | – | >> 1e-6 M | – | – | – | –
CC(C#N)[C@H]1CC[C@H]2[C@@H]3CCC4N(C)C(=O)CC[C@]4(C)[C@H]3CC[C@]12C (some centres undefined) | 290 nM | – | – | 7.6 nM | – | –
CCN(CC)C(=O)[C@H]1CC[C@H]2[C@@H]3CC[C@H]4N(C)C(=O)[C@H](O)C[C@]4(C)[C@H]3CC[C@]12C | 3200 nM | – | – | 460 nM | – | –
CCC(C)C(=O)[C@H]1CC[C@H]2[C@@H]3CCC4NC(=O)CC[C@]4(C)[C@H]3CC[C@]12C (some centres undefined) | > 100000 nM | – | – | 1.2 nM | – | –
CCNC(=O)[C@H]1CC[C@H]2[C@@H]3CCC4N(C)C(=O)CC[C@]4(C)[C@H]3CC[C@]12C (some centres undefined) | 1100 nM | – | – | 12 nM | – | –
CN1C(=O)CC[C@@]2(C)C1CC[C@H]1[C@@H]3CC[C@H](C(=O)[O-])[C@@]3(C)CC[C@@H]12.[Na+] (some centres undefined) | 9100 nM | – | – | 37 nM | – | –
CCN(CC)C(=O)[C@H]1CCC[C@H]2[C@@H]3CC[C@H]4N(C)C(=O)NC[C@]4(C)[C@H]3CC[C@]12C | 1600 nM | – | – | 500 nM | – | –
CC(C)N(C(=O)[C@H]1CC[C@H]2[C@@H]3CC=C4NC(=O)CC[C@]4(C)[C@H]3CC[C@]12C)C(C)C | 14000 nM | – | – | 86 nM | – | –
CCN1C(=O)CC[C@@]2(C)C1CC[C@@H]1[C@@H]2CC[C@@]2(C)[C@H]1CC[C@@]21CCCO1 (some centres undefined) | 13000 nM | – | – | 1170 nM | – | –
